Results: publication doi:10.1101/2024.08.25.609621 (bioRxiv, 2024)
Like-named read-outs stand apart in the source and are kept apart here.

Target: SARS-CoV-2 NSP3 macrodomain (Mac1), P43 crystal form (Severe acute respiratory syndrome coronavirus 2, UniProt P0DTD1)
Type: binding
Details: for 1-BDC: PanDDA background density correction; for Total number of conformations: ligand conformations modeled in Mac1 crystal structure; for 2*(1-BDC) (%): occupancy estimate from PanDDA 1-BDC
[1] = X-ray crystal structure determined (TRUE)
[2] = crystal soak 10 mM, P43 crystals
[3] = site of ligand in X-ray crystal structure
[4] = crystal soak, soak concentration 10 mM
[5] = crystal soak, soak concentration 10 mM, TRUE = ligand hit
[6] = crystal structure with Mac1 determined (TRUE)
[7] = site of ligand in Mac1 crystal structure
[8] = crystal soak 10 mM, TFA/DMSO background map

Structure (SMILES)	1-BDC	X-ray crystal structure [1]	Pandda run, overall: Hit [2]	Pandda run, overall: Modeled [2]	PanDDA run, DMSO background map: 1-BDC (crystal soak 10 mM)	PanDDA run, DMSO background map: Hit (crystal soak 10 mM)	Total number of conformations	2*(1-BDC) (%)	Binding site [3]	Pandda run, overall: Modeled [4]	Pandda run, overall: Hit [5]	PanDDA run, DMSO background map: 1-BDC (soak concentration 10 mM)	PanDDA run, DMSO background map: Hit (soak concentration 10 mM)	X-ray crystal structure [6]	Binding site [7]	X-ray crystallography: Binding site (site where the ligand is bound in the X-ray crystal structure)	Pandda run, overall: Modeling comment [4]	Pandda run, overall: Modeling comment [2]	PanDDA run, TFA/DMSO background map: 1-BDC [8]	PanDDA run, TFA/DMSO background map: Hit [8]
CCC(CO)Nc1ncnc2[nH]ccc12 (stereo not drawn) [AVI-3643]	0.16	TRUE	TRUE	TRUE	0.16	TRUE	1	32%	Adenosine											
OCC(Cc1cccs1)Nc1ncnc2[nH]ccc12 (stereo not drawn) [AVI-3711]	0.21	TRUE					1	42%	Adenosine	TRUE	TRUE	0.21	TRUE							
OC1CCCN(c2ncnc3[nH]ccc23)C1 (stereo not drawn) [AVI-3646]	0.22		TRUE	TRUE	0.22	TRUE	1	44%						TRUE	Adenosine					
O[C@@H]1CN(c2ncnc3[nH]ccc23)C[C@H]1F [AVI-616]	0.2						1	40%		TRUE	TRUE	0.2	TRUE	TRUE	Adenosine					
O=C(O)C(F)(F)F.O[C@H]1CCC[C@@H]1Nc1ncnc2[nH]ccc12 [AVI-3639]	0.11	TRUE	TRUE	TRUE	0.11	TRUE	1	22%	Adenosine											
CC(C)(C)[C@@H]1CCN(c2ncnc3[nH]ccc23)[C@H](CO)C1 [AVI-3722]	0.11						1	22%		TRUE	TRUE	0.11	TRUE			Adenosine				
CC(C)(C)C(O)CC(CO)Nc1ncnc2[nH]ccc12.O=C(O)C(F)(F)F (stereo not drawn) [AVI-3714]																	TFA only			
O=C(O)C(F)(F)F.OCC(Nc1ncnc2[nH]ccc12)C1CCCO1 (stereo not drawn) [AVI-3645]			TRUE		0.22	TRUE												Weak density, not modeled	0.12	TRUE
OCC(Nc1ncnc2[nH]ccc12)C1CCCC1 (stereo not drawn) [AVI-3649]	0.16	TRUE	TRUE	TRUE	0.16	TRUE	1	32%	Adenosine											
